Assay results: patent US8697692B2, “Pyrrolo [3,2-c] pyridine-4-one 2-indolinone protein kinase inhibitors” (Shanghai Hengrui Pharmaceutical Co., Ltd., priority 2006, dated 2014)

System: HUVEC cell
Test: Cell Proliferation Inhibition VEGF-R2 Assay (SRB method)
Assay type: cell-based, homo sapient
Conditions: Homo sapiens; HUVEC cells, 72 hours exposure, Sulforhodamine B; read-out: IC50 (VEGFR/HUVEC)
Summary of the method: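 HUVECs grown to ~85% confluence in DMEM/F12 + 10% FBS, then exposed to 6–7 compound concentrations for 72 h at 37 °C, 5% CO2; vehicle controls received 0.5% DMSO medium.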

| Structure (SMILES) | IC50 |
| --- | --- |
| CCN(CC)CCN1CCc2[nH]c(/C=C3\C(=O)Nc4cccc(Br)c43)c(C)c2C1=O [Example 30, 2-(4-Bromo-2-oxo-1,2-dihydro-indol-3-ylidenemethyl)-5-(2-diethylamino-ethyl)-3-methyl-1,5,6,7-tetrahydro-pyrrolo[3,2-c]pyridin-4-one] | 220 nM |
| CCN(CC)CCN1CCc2[nH]c(/C=C3\C(=O)Nc4cccc(-c5cccc(F)c5F)c43)c(C)c2C1=O [Example 39, 5-(2-diethylamino-ethyl)-2-[4-(2,3-difluoro-phenyl)-2-oxo-1,2-dihydro-indol-3-ylidenemethyl]-3-methyl-1,5,6,7-tetrahydro-pyrrolo[3,2-c]pyridin-4-one] | 50 nM |
| Cc1c(/C=C2\C(=O)Nc3ncc(Br)cc32)[nH]c2c1C(=O)N(CCN1CCOCC1)CC2 [Example 50, 2-(5-Bromo-2-oxo-1,2-dihydro-pyrrolo[2,3-b]pyridin-3-ylidenemethyl)-3-methyl-5-(2-morpholin-4-yl-ethyl)-1,5,6,7-tetrahydro-pyrrolo[3,2-c]pyridin-4-one] | 1160 nM |
| Cc1c(/C=C2\C(=O)Nc3cccc(CCO)c32)[nH]c2c1C(=O)N(CCN1CCOCC1)CC2 [Example 42, 2-[4-(2-Hydroxy-ethyl)-2-oxo-1,2-dihydro-indol-3-ylidenemethyl]-3-methyl-5-(2-morpholin-4-yl-ethyl)-1,5,6,7-tetrahydro-pyrrolo[3,2-c]pyridin-4-one] | 280 nM |
| Cc1c(/C=C2\C(=O)Nc3cccc(C4CCNCC4)c32)[nH]c2c1C(=O)N(CCN1CCOCC1)CC2 [Example 52, 3-Methyl-5-(2-morpholin-4-yl-ethyl)-2-(2-oxo-4-piperidin-4-yl-1,2-dihydro-indol-3-ylidenemethyl)-1,5,6,7-tetrahydro-pyrrolo[3,2-c]pyridin-4-one] | 260 nM |
| Cc1c(/C=C2\C(=O)Nc3ccc(Br)cc32)[nH]c2c1C(=O)N(CCN1CCCC1)CC2 [Example 40, 2-(5-Bromo-2-oxo-1,2-dihydro-indol-3-ylidenemethyl)-3-methyl-5-(2-pyrrolidin-1-yl-ethyl)-1,5,6,7-tetrahydro-pyrrolo[3,2-c]pyridin-4-one] | 130 nM |
| Cc1c(/C=C2\C(=O)Nc3cccc(-c4cccc(F)c4F)c32)[nH]c2c1C(=O)N(CCN1CCCC1)CC2 [Example 59, 2-[4-(2,3-Difluoro-phenyl)-2-oxo-1,2-dihydro-indol-3-ylidenemethyl]-3-methyl-5-(2-pyrrolidin-1-yl-ethyl)-1,5,6,7-tetrahydro-pyrrolo[3,2-c]pyridin-4-one] | 300 nM |
| CCN(CC)CCN1CCc2[nH]c(/C=C3\C(=O)Nc4cccc(-c5ccc(Cl)cc5F)c43)c(C)c2C1=O [Example 34, 2-[4-(4-Chloro-2-fluoro-phenyl)-2-oxo-1,2-dihydro-indol-3-ylidenemethyl]-5-(2-diethylamino-ethyl)-3-methyl-1,5,6,7-tetrahydro-pyrrolo[3,2-c]pyridin-4-one] | 120 nM |
| CCN(CC)CCN1CCc2[nH]c(/C=C3\C(=O)Nc4cccc(C5CCNCC5)c43)c(C)c2C1=O [Example 31, 5-(2-Diethylamino-ethyl)-3-methyl-2-(2-oxo-4-piperidin-4-yl-1,2-dihydro-indol-3-ylidenemethyl)-1,5,6,7-tetrahydro-pyrrolo[3,2-c]pyridin-4-one] | 190 nM |
| Cc1c(/C=C2\C(=O)Nc3ccc(Cl)cc32)[nH]c2c1C(=O)N(CCN1CCOCC1)CC2 [Example 16, 2-(5-Chloro-2-oxo-1,2-dihydro-indol-3-ylidenemethyl)-3-methyl-5-(2-morpholin-4-yl-ethyl)-1,5,6,7-tetrahydro-pyrrolo[3,2-c]pyridin-4-one] | 580 nM |
| CCN(CC)CCN1CCc2[nH]c(/C=C3\C(=O)Nc4ccc(OC)cc43)c(C)c2C1=O [Example 35, 5-(2-Diethylamino-ethyl)-2-(5-methoxy-2-oxo-1,2-dihydro-indol-3-ylidenemethyl)-3-methyl-1,5,6,7-tetrahydro-pyrrolo[3,2-c]pyridin-4-one] | 130 nM |
| CCN(CC)CCN1CCc2[nH]c(/C=C3\C(=O)Nc4cccc(CCO)c43)c(C)c2C1=O [Example 37, 5-(2-Diethylamino-ethyl)-2-[4-(2-hydroxy-ethyl)-2-oxo-1,2-dihydro-indol-3-ylidenemethyl]-3-methyl-1,5,6,7-tetrahydro-pyrrolo[3,2-c]pyridin-4-one] | 110 nM |
| CCN(CC)CCN1CCc2[nH]c(/C=C3\C(=O)Nc4cccc(-c5cccc(Cl)c5F)c43)c(C)c2C1=O [Example 36, 2-[4-(3-Chloro-2-fluoro-phenyl)-2-oxo-1,2-dihydro-indol-3-ylidenemethyl]-5-(2-diethylamino-ethyl)-3-methyl-1,5,6,7-tetrahydro-pyrrolo[3,2-c]pyridin-4-one] | 110 nM |
| CCN(CC)CCN1CCc2[nH]c(/C=C3\C(=O)Nc4ncnc(Nc5ccc(F)c(Cl)c5)c43)c(C)c2C1=O [Example 12, 4-(3-Chlor O-4-fluoro-phenylamino)-5-[5-(2-diethylamino-ethyl)-3-methyl-4-oxo-4,5,6,7-tetrahydro-1H-pyrrolo[3,2-c]pyridine-2-ylmethylene]-5,7-dihydro-pyrrolo[2,3-d]pyrimidin-6-one] | 3000 nM |
| Cc1c(/C=C2\C(=O)Nc3ncnc(Nc4ccc(F)c(Cl)c4)c32)[nH]c2c1C(=O)N(CCN1CCOCC1)CC2 [Example 24, 4-(3-Chloro-4-fluoro-phenylamino)-5-[3-methyl-5-(2-morpholin-4-yl-ethyl)-4-oxo-4,5,6,7-tetrahydro-1H-pyrrolo[3,2-c]pyridine-2-ylmethylenene]-5,7-dihydro-pyrrolo[2,3-d]pyrimidin-6-one] | 2420 nM |
